From DBAASP come the findings set out here.

Common to all, as to assay: ≥ marks a high value that may be exact or a test limit, other limits are often not marked, values filed in µg/mL are converted to µM
The test system of assay [1] is Escherichia coli ATCC 25922.
The test system of assay [2] is Candida albicans ATCC 2002.
For assay [3], the system named is Pseudomonas aeruginosa CMCCB 10104.
Assay [4] relates to Staphylococcus aureus ATCC 25923.
For assay [5], the system named is Staphylococcus aureus ATCC 6538.
Assay [6] deals with Pseudomonas aeruginosa ATCC 9027.
Assay [7] has as its system Bacillus subtilis ATCC 23857.
The subject of the next assay is Escherichia coli UB1005.
Another assay has as its system Escherichia coli DC2.
In assay [8] the test system is Corynebacterium xerosis C875.
Assay [9] concerns Staphylococcus epidermidis C621.
Assay [10] concerns Pseudomonas aeruginosa PAO1.
The test system of assay [11] is Salmonella enterica serovar Typhimurium.
Assay [12] has as its system Escherichia coli K12 MG1655.
For assay [13], the system named is Klebsiella pneumoniae ATCC 700603.

Converted amounts (≈) assume the structure as drawn. A value given as a limit tells only on which side of the number the result lay.

On to `CC[C@H](C)[C@H](NC(=O)[C@H](CC(N)=O)NC(=O)[C@H](CCCCN)NC(=O)[C@H](CCCCN)NC(=O)[C@@H]1CCCN1C(=O)[C@H](Cc1ccccc1)NC(=O)[C@@H](NC(=O)[C@@H](N)Cc1ccccc1)[C@@H](C)CC)C(=O)N[C@H](C(=O)N[C@@H](CC(N)=O)C(=O)N[C@@H](CO)C(=O)N[C@@H](CC(C)C)C(=O)N[C@@H](Cc1ccccc1)C(=O)NCC(=O)N[C@@H](CCCN=C(N)N)C(=O)O)[C@@H](C)CC` [FIFPKKNIINSLFGR], for which the MIC is more than 70.2 µM in assay [1], 8.92 µM (≈ 16 µg/mL) in [2], 8.92 µM (≈ 16 µg/mL) in assay [3] and 8.92 µM (≈ 16 µg/mL) in [4].

For `CC[C@H](C)[C@H](NC(=O)CN)C(=O)N[C@@H](CC(C)C)C(=O)N[C@@H](CCCCN)C(=O)N[C@@H](CCCCN)C(=O)N[C@H](C(=O)N[C@@H](CC(C)C)C(=O)N[C@@H](CCCCN)C(=O)N[C@@H](CCCCN)C(=O)N[C@H](C(=O)N[C@@H](CC(C)C)C(=O)N[C@@H](CCCCN)C(=O)N[C@@H](CCCCN)C(=O)N[C@@H](CC(C)C)C(N)=O)[C@@H](C)CC)[C@@H](C)CC` [GILKKILKKILKKL], the MIC was 9.3 µM (≈ 15.2 µg/mL) in assay [1], 5.2 µM (≈ 8.5 µg/mL) in assay [5], 5.8 µM (≈ 9.48 µg/mL) in assay [6] and 1.6 µM (≈ 2.62 µg/mL) in [7].

Take `CC[C@H](C)[C@H](NC(=O)[C@H](CC(C)C)NC(=O)[C@@H](NC(=O)[C@H](Cc1ccccc1)NC(=O)[C@H](CC(C)C)NC(=O)CN)[C@@H](C)O)C(=O)N[C@@H](CCCCN)C(=O)NCC(=O)N[C@@H](C)C(=O)N[C@@H](Cc1ccc(O)cc1)C(=O)N[C@@H](CCCCN)C(=O)N[C@@H](CC(C)C)C(=O)N[C@@H](CC(=O)O)C(=O)N[C@@H](C)C(=O)N1CCC[C@H]1C(=O)N[C@H](C(=O)N[C@H](C(=O)N[C@@H](C)C(=O)N[C@@H](CS)C(=O)N[C@@H](CC(N)=O)C(=O)O)C(C)C)[C@@H](C)O` [GLFTLIKGAYKLDAPTVACN]: the MIC came out at 19.2 µM (≈ 40.2 µg/mL) in assay [1], 9.59 µM (≈ 20.1 µg/mL) in assay [2], 19.2 µM (≈ 40.2 µg/mL) in assay [3] and 9.59 µM (≈ 20.1 µg/mL) in assay [4].

Turning to `CC[C@H](C)[C@H](NC(=O)CNC(=O)[C@H](CC(=O)O)NC(=O)[C@H](CC(C)C)NC(=O)[C@H](CC(C)C)NC(=O)CN)C(=O)N[C@@H](CC(C)C)C(=O)N[C@@H](CC(N)=O)C(=O)N[C@@H](C)C(=O)N[C@@H](CC(N)=O)C(=O)N[C@@H](Cc1ccccc1)C(=O)N[C@@H](CC(N)=O)C(=O)N[C@@H](C)C(=O)N[C@@H](C)C(=O)N[C@@H](CCCCN)C(=O)N[C@@H](CO)C(=O)N[C@@H](C)C(=O)NCC(=O)N[C@H](C(=O)N[C@@H](CO)C(=O)N[C@H](C(=O)N[C@@H](CC(C)C)C(=O)N[C@@H](CC(N)=O)C(=O)N[C@@H](C)C(=O)N[C@@H](CC(C)C)C(=O)N[C@@H](CO)C(=O)N[C@H]1CSSC[C@@H](C(=O)O)NC(=O)[C@H]([C@@H](C)O)NC(=O)[C@H](CCCCN)NC(=O)[C@H](CO)NC(=O)[C@H](CC(C)C)NC(=O)[C@H](CCCCN)NC1=O)C(C)C)[C@@H](C)O` [GLLDGILNANFNAAKSAGTSVLNALSCKLSKTC], the MIC in assay [1], in assay [2], in assay [3] and in [4] was 9.28 µM (≈ 30.6 µg/mL) in each case.

As for `CC[C@H](C)[C@H](NC(=O)[C@H](CCCCN)NC(=O)[C@@H](NC(=O)[C@@H](NC(=O)[C@H](CCCCN)NC(=O)[C@H](CCCCN)NC(=O)[C@@H](NC(=O)[C@@H](NC(=O)[C@H](CCCCN)NC(=O)[C@H](CCCCN)NC(=O)[C@@H](NC(=O)[C@@H](N)CCCCN)[C@@H](C)CC)[C@@H](C)CC)[C@@H](C)CC)[C@@H](C)CC)[C@@H](C)CC)C(N)=O` [KIKKIIKKIIKI], the MIC in [1] turned out to be 219 µM (≈ 321 µg/mL); in assay [5], 339 µM (≈ 497 µg/mL); in assay [6] it was 9 µM (≈ 13.2 µg/mL); in assay [7], 15.1 µM (≈ 22.1 µg/mL).

`C[C@H](NC(=O)[C@H](C)NC(=O)[C@H](C)NC(=O)[C@H](C)NC(=O)[C@H](C)NC(=O)[C@H](C)NC(=O)[C@H](C)NC(=O)[C@H](CCCCN)NC(=O)[C@@H](N)CCCCN)C(=O)N[C@@H](C)C(=O)N[C@@H](C)C(=O)N[C@@H](C)C(=O)N[C@@H](C)C(=O)N[C@@H](C)C(=O)N[C@@H](Cc1c[nH]c2ccccc12)C(=O)N[C@@H](C)C(=O)N[C@@H](C)C(=O)N[C@@H](C)C(=O)N[C@@H](C)C(=O)N[C@@H](C)C(=O)N[C@@H](C)C(=O)N[C@@H](CCCCN)C(=O)N[C@@H](CCCCN)C(=O)N[C@@H](CCCCN)C(=O)N[C@@H](CCCCN)C(N)=O` [KKAAAAAAAAAAAAWAAAAAAKKKK]: the MIC is not below 64 µM against Escherichia coli UB1005, not below 64 µM in the assay on Escherichia coli DC2, 2 µM (≈ 4.5 µg/mL) in assay [8] and not below 64 µM in [9].

As to `CC[C@H](C)[C@H](NC(=O)[C@H](CCCN=C(N)N)NC(=O)[C@H](Cc1c[nH]c2ccccc12)NC(=O)[C@H](CCC(N)=O)NC(=O)[C@@H](N)CCCCN)C(=O)N[C@@H](CCCN=C(N)N)C(=O)N[C@H](C(=O)N[C@@H](CS)C(=O)N[C@H](C(=O)N[C@H](C(=O)N[C@@H](CCCN=C(N)N)C(=O)N[C@@H](C)C(=O)O)[C@@H](C)CC)C(C)C)C(C)C` [KQWRIRVCVIRA], the MIC in [1] was found to be 20.9 µM (≈ 32 µg/mL); in [10], 41.9 µM (≈ 64 µg/mL); in [11], 20.9 µM (≈ 32 µg/mL); in assay [4] it was 20.9 µM (≈ 32 µg/mL).

As to `CC[C@H](C)[C@H](NC(=O)[C@H](CC(=O)O)NC(=O)[C@H](Cc1c[nH]c2ccccc12)NC(=O)[C@H](CO)NC(=O)[C@H](CCCN=C(N)N)NC(=O)[C@@H](N)CCCCN)C(=O)N[C@H](C(=O)N[C@@H](CCCCN)C(=O)N[C@@H](CCCCN)C(=O)N[C@@H](Cc1ccc(O)cc1)C(=O)N[C@H](C(=O)NCC(=O)N[C@H](C(=O)N[C@H](C(=O)N[C@H](C(=O)NCC(=O)N[C@H](C(=O)N[C@H](C(=O)N[C@@H](Cc1cnc[nH]1)C(=O)O)[C@@H](C)CC)[C@@H](C)O)C(C)C)C(C)C)C(C)C)C(C)C)C(C)C` [KRSWDIVKKYVGVVVGTIH], the MIC in [12] was not below 58.6 µM.

For the molecule `CC[C@H](C)[C@H](NC(=O)[C@H](CCCCN)NC(=O)[C@H](CCCCN)NC(=O)[C@H](C)NC(=O)[C@@H](NC(=O)[C@H](C)NC(=O)[C@H](CC(C)C)NC(=O)[C@H](CC(C)C)NC(=O)[C@H](C)NC(=O)[C@H](CCCCN)NC(=O)[C@H](C)NC(=O)[C@H](CC(N)=O)NC(=O)[C@@H](N)CC(C)C)C(C)C)C(=O)N[C@@H](CC(C)C)C(N)=O` [LNAKALLAVAKKIL], the MIC in assay [1] came out at 8 µM (≈ 11.7 µg/mL); in [13], 32 µM (≈ 46.9 µg/mL); in assay [6] it was 32 µM (≈ 46.9 µg/mL); in [4], 32 µM (≈ 46.9 µg/mL); in assay [7], 8 µM (≈ 11.7 µg/mL).

`CSCC[C@H](NC(=O)[C@H](CCC(=O)O)NC(=O)[C@H](C)NC(=O)[C@H](C)NC(=O)[C@@H](NC(=O)CNC(=O)[C@H](C)NC(=O)[C@@H](NC(=O)[C@H](Cc1ccccc1)NC(=O)[C@@H]1CCCN1C(=O)[C@@H](N)CC(C)C)C(C)C)C(C)C)C(=O)N[C@@H](CCSC)C(=O)N[C@@H](CCC(N)=O)C(=O)N[C@@H](Cc1cnc[nH]1)C(=O)N[C@H](C(=O)N[C@@H](Cc1ccc(O)cc1)C(=O)N[C@H]1CSSC[C@@H](C(=O)O)NC(=O)[C@H](CCCCN)NC(=O)[C@H](CCCCN)NC(=O)[C@H](CO)NC(=O)[C@H](C)NC(=O)[C@H](C)NC1=O)C(C)C` [LPFVAGVAAEMMQHVYCAASKKC]: the MIC in assay [1] was 2.16 µM (≈ 5.3 µg/mL); in assay [2], 4.32 µM (≈ 10.6 µg/mL); in [3] it was 17.3 µM (≈ 42.4 µg/mL); in assay [4], 4.32 µM (≈ 10.6 µg/mL).

Consider `CC[C@H](C)[C@H](NC(=O)[C@H](C)NC(=O)[C@H](CC(C)C)NC(=O)[C@H](CC(N)=O)NC(=O)[C@H](CCCCN)NC(=O)[C@H](CC(C)C)NC(=O)[C@@H](NC(=O)[C@H](CC(=O)O)NC(=O)[C@H](CC(C)C)NC(=O)[C@H](Cc1ccccc1)NC(=O)[C@@H](N)CO)[C@@H](C)O)C(=O)N[C@@H](CO)C(=O)N[C@@H](C)C(=O)N[C@@H](C)C(=O)N[C@@H](CCCCN)C(=O)NCC(=O)N[C@@H](C)C(=O)NCC(=O)N[C@@H](CCC(N)=O)C(=O)N[C@@H](CO)C(=O)N[C@H](C(=O)N[C@@H](CC(C)C)C(=O)N[C@@H](CO)C(=O)N[C@H](C(=O)N[C@@H](CC(C)C)C(=O)N[C@@H](CO)C(=O)N[C@H]1CSSC[C@@H](C(=O)O)NC(=O)[C@H]([C@@H](C)O)NC(=O)[C@H](CCCCN)NC(=O)[C@H](CO)NC(=O)[C@H](CC(C)C)NC(=O)[C@H](CCCCN)NC1=O)[C@@H](C)O)C(C)C` [SFLDTLKNLAISAAKGAGQSVLSTLSCKLSKTC], for which the MIC in assay [1], in assay [2], in assay [3] and in assay [4] was 3.9 µM (≈ 13.1 µg/mL) each time.

As to `CC[C@H](C)[C@H](NC(=O)[C@H](CCCN=C(N)N)NC(=O)[C@@H](NC(=O)[C@H](CCCN=C(N)N)NC(=O)[C@H](Cc1c[nH]c2ccccc12)NC(=O)[C@H](CCC(N)=O)NC(=O)[C@@H](N)C(C)C)[C@@H](C)CC)C(=O)N[C@@H](C)C(=O)N[C@H](C(=O)N[C@H](C(=O)N[C@@H](CCCN=C(N)N)C(=O)N[C@@H](CCCCN)C(=O)O)[C@@H](C)CC)C(C)C` [VQWRIRIAVIRK], the MIC in [1] is 10.4 µM (≈ 16 µg/mL); in assay [10], 20.8 µM (≈ 32 µg/mL); in [11], 10.4 µM (≈ 16 µg/mL); in assay [4], 10.4 µM (≈ 16 µg/mL).

As usually defined, the MIC is the lowest concentration that inhibits growth of the organism. Low values mean inhibition by little substance, high ones a need for much substance.
